From US20120165319A1, “INHIBITORS OF INTERLEUKIN-1 BETA CONVERTING ENZYME” (VERTEX PHARMACEUTICALS INCORPORATED, priority 1995, published 2012)

How the values were obtained:
TX = target: T1, TX (Homo sapiens, UniProt P49662); experiment: Inhibition of ICE homologs: TX; format: biochemical; conditions: ICE substrate, conditions identical to ICE (Table 1)
T1 construct: made in house; host or cells: Spodoptera frugiperda (Sf9) insect cells, recombinant baculovirus (pVL1393/TX)
T1 sequence (P49662 81-270 limits assumed): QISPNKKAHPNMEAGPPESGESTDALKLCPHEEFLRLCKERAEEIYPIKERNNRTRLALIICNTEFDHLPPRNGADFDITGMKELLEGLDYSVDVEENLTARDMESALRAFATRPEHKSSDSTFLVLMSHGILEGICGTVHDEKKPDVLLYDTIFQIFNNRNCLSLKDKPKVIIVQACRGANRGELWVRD
T1 sequence (P49662 290-377 limits assumed): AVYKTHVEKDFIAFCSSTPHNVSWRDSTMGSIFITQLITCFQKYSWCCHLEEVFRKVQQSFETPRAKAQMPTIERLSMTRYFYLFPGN
Text: Expression of TX in insect cells using a baculovirus expression system. We have subcloned Tx cDNA (Faucheu et al., supra 1995) into a modified pVL1393 transfer vector, co-transfected the resultant plasmid (pVL1393/TX) into insect cells with viral DNA and identified the recombinant baculovirus. After the generation of high titer recombinant virus stock, the medium was examined for TX activity using the visible ICE assay. […] ICE was used as a standard in the assay.
(§1) The selectivity of a panel of reversible inhibitors for ICE homologs is depicted in Table 1. ICE enzyme assays were performed according to Wilson et al (supra 1994) using a YVAD-AMC substrate (Thornberry et al, supra 1992). Assay of TX activity was performed using the ICE substrate under identical conditions to ICE. Assay of CPP32 was performed using a DEVD-AMC substrate (Nicholson et al., supra 1995). In general, there is low selectivity between ICE and TX for a wide range of scaffolds. None of the synthetic ICE compounds tested are effective inhibitors of CPP32.
(§2) Second-order rate constants for inactivation of ICE and ICE homologs with selected irreversible inhibitors are presented below (Table 2). The irreversible compounds studied are broad spectrum inhibitors of ICE and its homologs. Some selectivity, however, is observed with the irreversible compounds comparing inhibition of ICE and CPP32.

[1] = Measurement of blood levels of prodrugs of 214e after p.o. dosing in mice; format: in vivo, mouse
Procedure: Measurement of Blood Levels of Prodrugs of 214e
Mice were administered a p.o. dose of compounds 302 and 304a (50 mg/kg) prepared in 0.5% carboxymethylcellulose. Blood samples were collected at 1 and 7 hours after dosing. Serum was extracted by precipitation with an equal volume of acetonitrile containing 2% formic acid followed by centrifugation. The supernatant was analyzed by liquid chromatography-mass spectrometry (ESI-MS) with a detection level of 0.03 to 3 μg/ml.

CPP32 = target: T2, CPP32 (Homo sapiens, UniProt P42574); experiment: Inhibition of ICE homologs: CPP32 (DEVD-AMC substrate)
T2 sequence (P42574 29-175 limits assumed): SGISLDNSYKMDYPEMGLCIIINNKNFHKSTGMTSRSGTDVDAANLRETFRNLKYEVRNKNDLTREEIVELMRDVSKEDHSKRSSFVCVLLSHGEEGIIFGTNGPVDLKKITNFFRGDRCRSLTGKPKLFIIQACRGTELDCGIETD
T2 sequence (P42574 176-277 limits assumed): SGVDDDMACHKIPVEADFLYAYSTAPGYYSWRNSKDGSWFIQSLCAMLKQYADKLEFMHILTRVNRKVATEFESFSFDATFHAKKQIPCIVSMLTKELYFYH

ICE = target: T3, ICE (Homo sapiens, UniProt P29466); experiment: Enzyme assay with fluorescent substrate (Acetyl-Tyr-Val-Ala-Asp-AMC); Ki and second order rate constants kinact; format: biochemical; conditions: YVAD-AMC substrate; reversible inhibitors (Table 1)
T3 sequence (P29466 120-297 limits assumed): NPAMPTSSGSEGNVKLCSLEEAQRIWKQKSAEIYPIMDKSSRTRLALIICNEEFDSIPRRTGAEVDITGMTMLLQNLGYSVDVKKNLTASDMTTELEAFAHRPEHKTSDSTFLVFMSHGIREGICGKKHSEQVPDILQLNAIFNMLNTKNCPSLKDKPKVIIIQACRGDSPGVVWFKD
T3 sequence (P29466 317-404 limits assumed): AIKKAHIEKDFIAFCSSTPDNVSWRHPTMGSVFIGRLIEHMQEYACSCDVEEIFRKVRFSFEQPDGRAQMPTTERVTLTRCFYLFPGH
Procedure: 2. Enzyme Assay with Fluorescent Substrate
This assay is run essentially according to Thornberry et al. (Nature 356: 768-774 (1992)), using substrate 17 referenced in that article. The substrate is: Acetyl-Tyr-Val-Ala-Asp-amino-4-methylcoumarin (AMC). The following components are mixed:
The assay is run in a 96 well microtiter plate. Buffer and ICE are added to the wells. The components are left to incubate at 37° C. for 15 minutes in a temperature-controlled wellplate. After the 15 minute incubation, the reaction is started by adding substrate directly to the wells and the reaction is monitored @37° C. for 30 minutes by following the release of the AMC fluorophore using an excitation wavelength for 380 nm and an emission wavelength of 460 nm. A linear fit of the data for each well is performed and a rate is determined in fluorescence units per second.
For determination of enzyme inhibition constants (Ki) or the mode of inhibition (competitive, uncompetitive or noncompetitive), the rate data determined in the enzyme assays at varying inhibitor concentrations are computer-fit to standard enzyme kinetic equations (see I. H. Segel, Enzyme Kinetics, Wiley-Interscience, 1975).
The determination of second order rate constants for irreversible inhibitors was performed by fitting the fluorescence vs time data to the progress equations of Morrison. Morrison, J. F., Mol. Cell. Biophys., 2, pp. 347-368 (1985). Thornberry et al. have published a description of these methods for measurement of rate constants of irreversible inhibitors of ICE. Thornberry, N. A., et al. Biochemistry, 33, pp. 3923-3940 (1994). For compounds where no prior complex formation can be observed kinetically, the second order rate constants (kinact) are derived directly from the slope of the linear plots of kobs vs. [I]. For compounds where prior complex formation to the enzyme can be detected, the hyperbolic plots of kobs vs. [I] are fit to the equation for saturation kinetics to first generate Ki and k′. The second order rate constant kinact is then given by k′/Ki.
as §1, §2

U937 cells = experiment: Fas-induced apoptosis in U937 cells; conditions: anti-Fas-induced apoptosis, U937 cells, 20 μM
Procedure: Fas-Induced Apoptosis in U937 cells. Compounds were evaluated for their ability to block anti-Fas-induced apopotosis. […] We used this cell line for apoptosis studies. U937 cells were seeded in culture at 1×10^5 cells/ml and grown to ˜5×10^6 cells/ml. For apoptosis experiments, 2×10^6 cells were plated in 24-well tissue culture plates in 1 ml RPMI-1640-10% FBS and stimulated with 100 ng/ml anti-Fas antigen antibody (Medical and Biological Laboratories, Ltd.). After a 24 hr incubation at 37° C., the percentage of apoptotic cells was determined by FACS analysis using ApoTag reagents.

| SMILES | Ki (TX) | blood levels when administered orally ([1]; orally, detection level 0.03 to 3 μg/ml) | Ki (CPP32) | Ki (ICE) | Inhibition of apoptosis (U937 cells) | blood levels when administered orally (in words) ([1]; p.o. 50 mg/kg in 0.5% carboxymethylcellulose, blood at 1 and 7 hours) |
| --- | --- | --- | --- | --- | --- | --- |
| O=C[C@H](CC(=O)O)NC(=O)[C@@H]1CCCN2C(=O)CC[C@H](NC(=O)c3ccccc3)C(=O)N12 [Compound 214e, [3S(1S,9S)]3-(9-Benzoylamino-6,10-dioxo-1,2,3,4,7,8,9,10-octahydro-6H-pyridazino[1,2-a][1,2]-diazepine-1-carboxamido)-4-oxobutanoic acid] | 7 ± 1.1 nM | ≤ 100 ng/mL | > 1000 nM | 7.5 nM | no inhibition |  |
| CC(C)(C)OC(=O)C[C@@H](C=O)NC(=O)[C@@H]1CCCN2C(=O)CC[C@H](NC(=O)c3ccccc3)C(=O)N12 [Compound 302, [3S(1S,9S)3-(9-Benzoylamino-6,10-dioxo-1,2,3,4,7,8,9,10-octahydro-6H-pyriazino-[1,2-a][1,2]diazapine-1-carboxamido)-amino]-4-oxobutanoic acid tert-butyl ester] |  |  |  |  |  | detectable blood levels |
